Assay results as given in US20230183237A1, “COMPETITIVE AND NONCOMPETITIVE INHIBITORS OF THE MUSCARINIC ACETYLCHOLINE RECEPTOR M5” (Vanderbilt University, priority 2020, published 2023).
Where two headings read alike, the source gives them in different places.

Biological target: T1, hM5 (Homo sapiens, UniProt P08912)
T1 construct: expressed in transfected cells
T1 sequence (P08912 1-532): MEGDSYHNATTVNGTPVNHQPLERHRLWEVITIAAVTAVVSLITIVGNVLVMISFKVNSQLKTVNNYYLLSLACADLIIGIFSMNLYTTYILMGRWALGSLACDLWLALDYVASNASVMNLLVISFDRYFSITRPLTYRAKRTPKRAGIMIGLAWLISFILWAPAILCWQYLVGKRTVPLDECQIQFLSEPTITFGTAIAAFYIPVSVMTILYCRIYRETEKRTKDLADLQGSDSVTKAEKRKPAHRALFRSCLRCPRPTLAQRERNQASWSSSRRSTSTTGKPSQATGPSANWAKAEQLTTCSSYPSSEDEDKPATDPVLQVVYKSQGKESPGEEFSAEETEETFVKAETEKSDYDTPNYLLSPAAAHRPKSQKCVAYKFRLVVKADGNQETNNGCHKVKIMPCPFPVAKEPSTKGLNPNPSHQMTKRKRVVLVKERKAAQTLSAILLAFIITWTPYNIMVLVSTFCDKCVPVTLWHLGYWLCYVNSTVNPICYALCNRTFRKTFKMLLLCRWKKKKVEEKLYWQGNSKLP
Assay: Calcium mobilization concentration-response (IC50 vs EC80 acetylcholine), CHO hM5
Assay type: cell-based
Conditions: CELL LINE hM5, read-out: IC50
Experimental: Initial, single point (10 μM) compound characterization was performed in stable Chinese Hamster Ovary (CHO) cell lines constitutively expressing human M5 receptors. These were plated at 15,000 cells per 20 μL per well in Greiner 384-well black-walled, TC-treated, clear-bottomed plates (Fisher) in Ham's F12 medium supplemented with 10% FBS and 20 mM HEPES. Cells were incubated overnight at 37° C. under 5% CO2. The following day, medium was exchanged with assay buffer (Hank's Balanced Salt Solution supplemented with 20 mM HEPES and 2.5 mM Probenecid, pH 7.4) leaving 20 μL of assay buffer in each well. […] The cells were then incubated 50 minutes at 37° C. under 5% CO2. The assay buffer plus dye was then exchanged with fresh assay buffer leaving a volume of 20 μL in each well. Test compounds were diluted into assay buffer to a 2X (20 μM) concentration in 0.2% dimethylsulfoxide (DMSO) in columns 3-22 with matching DMSO concentration in columns 1, 2, 23, and […]; compounds were added to the assay for a final concentration of 10 μM and a final DMSO concentration of 0.1%.
Either an FDSS (Hamamatsu) or Panoptic (WaveFront Biosciences) kinetic imaging plate reader was used for assay execution and measurement of calcium flux. After establishing baseline fluorescence, test compounds (20 μL) were added to the cells using the reader's integrated pipettor and allowed to equilibrate for 140 seconds before addition of the […] concentration of acetylcholine (10 μL) along with vehicle in selected DMSO-only wells in the outer two columns . […] The raw fluorescence data from each well was normalized to the corresponding initial fluorescence reading (static ratio). The maximum fluorescence value following each addition was determined and the minimum value within that same timeframe was subtracted for each well then normalized to the average of the ECffiax maximum-minimum response, providing a % AChmax value for each addition for each well. The single point values represent mean values determined within the ECsu addition timeframe obtained from at least three independent determinations performed in triplicate or greater (error bars represent +/−SEM) unless otherwise specified.
CHO cells stably expressing hM1, hM2/Gqi5, hM3, hM4/Gqi5, hM5, rM1/Gqi5, rM3, rM4/Gqi5, or rM5 were plated in the manner described above. […] FDSS protocols were carried out as described above; the static ratio was calculated and the minimum response subtracted from the maximum response within the timeframe of each addition. This max-min response was then normalized to the maximum acetylcholine response. Calculation of IC50 was performed using the percent maximum acetylcholine response for the EC80 addition through the Vortex and Studies modules of the Dotmatics data management software. Results are stored in the Dotrnatics database and an audit trail of any changes to their analysis is generated. Data shown represent mean values obtained from at least three independent determinations performed in triplicate or greater (error bars represent±SEM) unless otherwise specified.

[1] = calcium mobilization, EC80 acetylcholine addition

IC50 [1] [nM] | IC50 (vs EC80 acetylcholine) [nM] | Structure (SMILES)
2100 |  | Cc1cc2ncnn2cc1C1CCN(S(=O)(=O)c2cn(C)nc2C(F)(F)F)CC1 [Compound 101, 7-methyl-6-(1-((1-methyl-3-(trifluoromethyl)-1H-pyrazol-4-yl)sulfonyl)piperidin-4-yl)-[1,2,4]triazolo[1,5-a]pyridine]
12 |  | [2H]C([2H])([2H])n1nc(Cl)c(S(=O)(=O)N2CCC(c3cn4ncnc4c(F)c3C)CC2)c1C [Compound 319, 6-(1-((3-chloro-5-methyl-1-(methyl-d3)-1H-pyrazol-4-yl)sulfonyl)piperidin-4-yl)-8-fluoro-7-methyl-[1,2,4]triazolo[1,5-a]pyridine]
25 |  | Cc1cc2ncnn2cc1C1CCN(S(=O)(=O)c2c(Cl)nn(C)c2C)CC1 [Compound 325, 6-(1-((3-chloro-1,5-dimethyl-1H-pyrazol-4-yl)sulfonyl)piperidin-4-yl)-7-methyl-[1,2,4]triazolo[1,5-a]pyridine]
 | 67 | COc1c(S(=O)(=O)N2CCC(c3cn4ncnc4cc3C(F)(F)F)CC2)cnn1C [Compound 585, 6-(1-((5-methoxy-1-methyl-1H-pyrazol-4-yl)sulfonyl)piperidin-4-yl)-7-(trifluoromethyl)-[1,2,4]triazolo[1,5-a]pyridine]
 | 32 | Cc1cnc2ccccc2c1C1=CCN(S(=O)(=O)c2cnn(C)c2Cl)CC1 [Compound 427, 4-(1-((5-chloro-1-methyl-1H-pyrazol-4-yl)sulfonyl)-1,2,3,6-tetrahydropyridin-4-yl)-3-methylquinoline]
 | > 10000 | Cc1cc2ccnn2cc1C1CCN(S(=O)(=O)c2cnn(C)c2CC#N)CC1 [Compound 454, 2-(1-methyl-4-((4-(5-methylpyrazolo[1,5-a]pyridin-6-yl)piperidin-1-yl)sulfonyl)-1H-pyrazol-5-yl)acetonitrile]
125 |  | Cc1c(S(=O)(=O)N2CCC(c3cn4ncnc4cc3F)CC2)cnn1C [Compound 161, 6-(1-((1,5-dimethyl-1H-pyrazol-4-yl)sulfonyl)piperidin-4-yl)-7-fluoro-[1,2,4]triazolo[1,5-a]pyridine]
 | 1260 | Cn1ncc(S(=O)(=O)N2CCC(F)(c3cn4ncnc4cc3F)CC2)c1C(F)F [Compound 504, 6-(1-((5-(difluoromethyl)-1-methyl-1H-pyrazol-4-yl)sulfonyl)-4-fluoropiperidin-4-yl)-7-fiuoro-[1,2,4]triazolo[1,5-a]pyridine]
2900 |  | Cc1cc2ncnn2cc1C1CCN(S(=O)(=O)c2c(C)n[nH]c2C)CC1 [Compound 157, 6-(1-((3,5-dimethyl-1H-pyrazol-4-yl)sulfonyl)piperidin-4-yl)-7-methyl-[1,2,4]triazolo[1,5-a]pyridine]
> 10000 |  | Cc1nc2[nH]cnc2cc1C1CCN(S(=O)(=O)c2cnn3c2CCC3)CC1 [Compound 289, 6-(1-((5,6-dihydro-4H-pyrrolo[1,2-b]pyrazol-3-yl)sulfonyl)piperidin-4-yl)-5-methyl-3H-imidazo[4,5-b]pyridine]
237 |  | O=S(=O)(c1cnn2c1CCCC2)N1CCC(c2ccc3ncnn3c2)CC1 [Compound 287, 6-(1-((4,5,6,7-tetrahydropyrazolo[1,5-a]pyridin-3-yl)sulfonyl)piperidin-4-yl)-[1,2,4]triazolo[1,5-a]pyridine]
99 |  | O=S(=O)(c1cnc2n1CCCC2)N1CCC(c2cn3ncnc3cc2F)CC1 [Compound 326, 7-fluoro-6-(1-((5,6,7,8-tetrahydroimidazo[1,2-a]pyridin-3-yl)sulfonyl)piperidin-4-yl)-[1,2,4]triazolo[1,5-a]pyridine]
> 10000 |  | Cc1cc2ncnn2cc1C1CCN(S(=O)(=O)c2cc3c(cc2F)OCC3)C1 (centres unmarked) [Compound 127, 6-(1-((6-fluoro-2,3-dihydrobenzofuran-5-yl)sulfonyl)pyrrolidin-3-yl)-7-methyl-[1,2,4]triazolo[1,5-a]pyridine]
 | 1990 | Cc1cc2ncccc2cc1C1CCN(S(=O)(=O)c2cnn3cccnc23)CC1 [Compound 448, 7-methyl-6-(1-(pyrazolo[1,5-a]pyrimidin-3-ylsulfonyl)piperidin-4-yl)quinoline]
 | 16 | Cc1cc(N(C)C)ncc1C1CCN(S(=O)(=O)c2cnc3sccn23)CC1 [Compound 566, 5-(1-(imidazo[2,1-b]thiazol-5-ylsulfonyl)piperidin-4-yl)-N,N,4-trimethylpyridin-2-amine]
1600 |  | Cc1cc2ncnn2nc1C1CCN(S(=O)(=O)c2ccc3c(c2)N(C)CCO3)CC1 [Compound 166, 4-methyl-6-((4-(7-methyl-[1,2,4]triazolo[1,5-b]pyridazin-6-yl)piperidin-1-yl)sulfonyl)-3,4-dihydro-2H-benzo[b][1,4]oxazine]
360 |  | Cc1c(C2CCN(S(=O)(=O)c3cnn(C)c3C(F)(F)F)CC2)cn2ncnc2c1F [Compound 347, 8-fluoro-7-methyl-6-(1-((1-methyl-5-(trifluoromethyl)-1H-pyrazol-4-yl)sulfonyl)piperidin-4-yl)-[1,2,4]triazolo[1,5-a]pyridine]
276 |  | Cc1cn2ncnc2cc1C1CCN(S(=O)(=O)c2cnn(C)c2C)CC1 [Compound 222, 7-(1-((1,5-Dimethyl-1H-pyrazol-4-yl)sulfonyl)piperidin-4-yl)-6-methyl-[1,2,4]triazolo[1,5-a]pyridine]
> 10000 |  | O=S(=O)(c1ccc2ncsc2c1)N1CCC(c2cc3[nH]ccc3cn2)CC1 [Compound 30, 6-((4-(1H-pyrrolo[3,2-c]pyridin-6-yl)piperidin-1-yl)sulfonyl)benzo[d]thiazole]
 | 655 | [2H]C([2H])([2H])Oc1c(S(=O)(=O)N2CCC(c3cn4ncnc4cc3F)CC2)cnn1C [Compound 616, 7-fluoro-6-(1-((5-(methoxy-d3)-1-methyl-1H-pyrazol-4-yl)sulfonyl)piperidin-4-yl)-[1,2,4]triazolo[1,5-a]pyridine]
358 |  | Cc1c(S(=O)(=O)N2CCC(c3ccc4ncnn4c3)CC2)cnn1C [Compound 288, 6(1-((1,5-dimethyl-1H-pyrazol-4-yl)sulfonyl)piperidin-4-yl)-[1,2,4]triazolo[1,5-a]pyridine]
> 10000 |  | Cc1nn(C)cc1S(=O)(=O)N1CCC(c2ccc3ncnn3c2)CC1 [Compound 63, 6-(1-((1,3-dimethyl-1H-pyrazol-4-yl)sulfonyl)piperidin-4-yl)-[1,2,4]triazolo[1,5-a]pyridine]
1900 |  | Cc1cc(S(=O)(=O)N2CCC(c3cn4ncnc4cc3C(F)(F)F)CC2)c(C)s1 [Compound 280, 6-(1-((2,5-dimethylthiophen-3-yl)sulfonyl)piperidin-4-yl)-7-(trifluoromethyl)-[1,2,4]triazolo[1,5-a]pyridine]
> 10000 |  | O=S(=O)(c1ccc2ncccc2c1)N1CCC(c2cc3[nH]ncc3cn2)CC1 [Compound 20, 6-((4-(1H-pyrazolo[4,3-c]pyridin-6-yl)piperidin-1-yl)sulfonyl)quinoline]
 | 1710 | Cc1c(C2CCN(S(=O)(=O)c3nncn3C)CC2)cn2ncnc2c1F [Compound 542, 8-fluoro-7-methyl-6-(1-((4-methyl-4H-1,2,4-triazol-3-yl)sulfonyl)piperidin-4-yl)-[1,2,4]triazolo[1,5-a]pyridine]
 | 96 | [2H]C1([2H])CC(c2cn3ncnc3cc2F)CC([2H])([2H])N1S(=O)(=O)c1c(C)nn(C)c1Cl [Compound 475, 6-(1-((5-chloro-1,3-dimethyl-1H-pyrazol-4-yl)sulfonyl)piperidin-4-yl-2,2,6,6-d4)-7-fluoro-[1,2,4]triazolo[1,5-a]pyridine]
